Source: patent publication US10206937B2, “Boronic acid derivatives and therapeutic uses thereof” (Qpex Biopharma, Inc., priority 2014, dated 2019)

Test system: strains of Enterobacteriaceae producing various carbapenemases (class A, D and B; 169 strains)
Test: Meropenem or tebipenem potentiation by Compounds 97 or 62 (MIC)
Assay type: cell-based
Procedure: The largest panel of clinical isolates expressing class A, D and B carbapenemases alone or in combination with other beta-lactamases (169 strains) was used to evaluate carbapenem potentiation activity of Compounds 97 and 62. MIC for meropenem and tebipenem of these strains were determined either alone or in the presence of Compounds 97 or 62, respectively, at a fixed concentration of 8 μg/ml in the growth media.

C[C@@H](O)[C@H]1C(=O)N2C(C(=O)O)=C(SC3CN(C4=NCCS4)C3)[C@H](C)[C@H]12 [T]
Tebipenem MIC alone (T) (CF1022 Citrobacter freundii SHV-12(2be), TEM-OSBL(2b), IMP-8): Y (MIC of 1 μg/mL to 10 μg/mL)
Tebipenem MIC alone (T) (CF1023 Citrobacter freundii SHV-12(2be), TEM-OSBL(2b), CTX-M-3, CMY-34, NDM-1): Z (MIC of greater than 10 μg/mL)
Tebipenem MIC alone (T) (EC1061 Escherichia coli NDM-1, CMY-6): Z (MIC of greater than 10 μg/mL)
Tebipenem MIC alone (T) (EC1069 Escherichia coli CTX-M-27, NDM-1): Z (MIC of greater than 10 μg/mL)
Tebipenem MIC alone (T) (EC1070 Escherichia coli TEM-OSBL(2b), CMY-42, NDM-5): Z (MIC of greater than 10 μg/mL)
Tebipenem MIC alone (T) (EC1072 Escherichia coli CTX-M-3, NDM-1): Z (MIC of greater than 10 μg/mL)
Tebipenem MIC alone (T) (ECL1045 Enterobacter cloacae VIM-1): Y (MIC of 1 μg/mL to 10 μg/mL)
Tebipenem MIC alone (T) (ECL1055 Enterobacter cloacae KPC-3, TEM): Z (MIC of greater than 10 μg/mL)
Tebipenem MIC alone (T) (ECL1057 Enterobacter cloacae NDM-1, TEM-1, CTX-M-15): Z (MIC of greater than 10 μg/mL)
Tebipenem MIC alone (T) (ECL1084 Enterobacter cloacae CTX-M-15, ACT-16, NDM-1): Z (MIC of greater than 10 μg/mL)
Tebipenem MIC alone (T) (ECL1085 Enterobacter cloacae SHV-31(2be), TEM-1(2b), CTX-M-15, NDM-1): Z (MIC of greater than 10 μg/mL)
Tebipenem MIC alone (T) (ECL1087 Enterobacter cloacae VIM-1): Y (MIC of 1 μg/mL to 10 μg/mL)
Tebipenem MIC alone (T) (ECL1090 Enterobacter cloacae TEM-1(2b), CTX-M-22, ACT-type, IMP-8): Y (MIC of 1 μg/mL to 10 μg/mL)
Tebipenem MIC alone (T) (ECL1092 Enterobacter cloacae TEM-OSBL(2b), ACT-32, VIM-1): Y (MIC of 1 μg/mL to 10 μg/mL)
Tebipenem MIC alone (T) (ECL1093 Enterobacter cloacae TEM-OSBL(2b), ACT-32, VIM-1): Y (MIC of 1 μg/mL to 10 μg/mL)
Tebipenem MIC alone (T) (ECL1094 Enterobacter cloacae VIM-1): Z (MIC of greater than 10 μg/mL)
Tebipenem MIC alone (T) (ECL1095 Enterobacter cloacae SHV-12(2be), TEM-OSBL(2b), CMY-4, ACT-16, VIM-4, OXA-48(c)): Z (MIC of greater than 10 μg/mL)
Tebipenem MIC alone (T) (ECL1096 Enterobacter cloacae CMY-4, VIM-4, OXA-48(c)): Z (MIC of greater than 10 μg/mL)
Tebipenem MIC alone (T) (ECL1097 Enterobacter cloacae SHV-31(2be), TEM-OSBL(2b), CTX-M-15, ACT-31, NDM-1): Z (MIC of greater than 10 μg/mL)
Tebipenem MIC alone (T) (ECL1098 Enterobacter cloacae TEM-OSBL(2b), DHA-1, ACT-16, NDM-1): Z (MIC of greater than 10 μg/mL)
Tebipenem MIC alone (T) (KP1054 Klebsiella pneumoniae VIM-1, SHV-11): Z (MIC of greater than 10 μg/mL)
Tebipenem MIC alone (T) (KP1059 Klebsiella pneumoniae VIM-1, SHV-11): Z (MIC of greater than 10 μg/mL)
Tebipenem MIC alone (T) (KP1061 Klebsiella pneumoniae KPC-3, TEM-1, SHV-11): Z (MIC of greater than 10 μg/mL)
Tebipenem MIC alone (T) (KP1064 Klebsiella pneumoniae KPC-2, TEM-1, SHV-11): Z (MIC of greater than 10 μg/mL)
Tebipenem MIC alone (T) (KP1065 Klebsiella pneumoniae VIM-1, SHV-11): Y (MIC of 1 μg/mL to 10 μg/mL)
Tebipenem MIC alone (T) (KP1070 Klebsiella pneumoniae KPC-2, SHV-11, TEM-1): Z (MIC of greater than 10 μg/mL)
Tebipenem MIC alone (T) (KP1074 Klebsiella pneumoniae KPC-3, SHV-11, TEM): Z (MIC of greater than 10 μg/mL)
Tebipenem MIC alone (T) (KP1081 Klebsiella pneumoniae NDM-1, TEM-1, SHV-11, CMY-6, CTX-M-15): Z (MIC of greater than 10 μg/mL)
Tebipenem MIC alone (T) (KP1158 Klebsiella pneumoniae KPC-2, VIM-1): Z (MIC of greater than 10 μg/mL)
Tebipenem MIC alone (T) (KP1159 Klebsiella pneumoniae SHV-1(2b), CTX-M-15, IMP-4): Y (MIC of 1 μg/mL to 10 μg/mL)
Tebipenem MIC alone (T) (KP1160 Klebsiella pneumoniae SHV-28(2be), CTX-M-15, IMP-26): Y (MIC of 1 μg/mL to 10 μg/mL)
Tebipenem MIC alone (T) (KP1161 Klebsiella pneumoniae NDM-1): Z (MIC of greater than 10 μg/mL)
Tebipenem MIC alone (T) (KP1162 Klebsiella pneumoniae SHV-1(2b), CTX-M-15, IMP-4): Z (MIC of greater than 10 μg/mL)
Tebipenem MIC alone (T) (KP1163 Klebsiella pneumoniae SHV-11(2b), MOX-1, KPC-2, VIM-1): Z (MIC of greater than 10 μg/mL)
Tebipenem MIC alone (T) (KP1164 Klebsiella pneumoniae SHV-12(2be), VIM-1): Z (MIC of greater than 10 μg/mL)
Tebipenem MIC alone (T) (KP1165 Klebsiella pneumoniae SHV-11(2b), CTX-M-15, VIM-27): Z (MIC of greater than 10 μg/mL)
Tebipenem MIC alone (T) (KP1166 Klebsiella pneumoniae SHV-5(2be), VIM-26): Z (MIC of greater than 10 μg/mL)
Tebipenem MIC alone (T) (KP1168 Klebsiella pneumoniae SHV-11(2b), CTX-M-15, VIM-27): Z (MIC of greater than 10 μg/mL)
Tebipenem MIC alone (T) (KP1169 Klebsiella pneumoniae SHV-11(2b), VIM-1): Y (MIC of 1 μg/mL to 10 μg/mL)
Tebipenem MIC alone (T) (KP1170 Klebsiella pneumoniae SHV-11(2b), CTX-M-15, NDM-1): Z (MIC of greater than 10 μg/mL)
Tebipenem MIC alone (T) (KP1172 Klebsiella pneumoniae SHV-31(2be), DHA-1, VIM-1): Y (MIC of 1 μg/mL to 10 μg/mL)
Tebipenem MIC alone (T) (KP1173 Klebsiella pneumoniae TEM-33(2br), CTX-M-15, IMP-1): Y (MIC of 1 μg/mL to 10 μg/mL)
Tebipenem MIC alone (T) (KP1174 Klebsiella pneumoniae CTX-M-14, IMP-1): Y (MIC of 1 μg/mL to 10 μg/mL)
Tebipenem MIC alone (T) (KP1175 Klebsiella pneumoniae SHV-OSBL(2b), VIM-1): Z (MIC of greater than 10 μg/mL)
Tebipenem MIC alone (T) (KP1176 Klebsiella pneumoniae SHV-12(2be), TEM-OSBL(2b), CMY-13, KPC-2, VIM-1): Z (MIC of greater than 10 μg/mL)
Tebipenem MIC alone (T) (KP1177 Klebsiella pneumoniae SHV-OSBL(2b), TEM-OSBL(2b), CTX-M-15, NDM-1): Z (MIC of greater than 10 μg/mL)
Tebipenem MIC alone (T) (KP1178 Klebsiella pneumoniae SHV-OSBL(2b), TEM-OSBL(2b), CTX-M-15, NDM-1): Z (MIC of greater than 10 μg/mL)
Tebipenem MIC alone (T) (KP1179 Klebsiella pneumoniae SHV-12(2be), TEM-OSBL(2b), CTX-M-15, NDM-7): Z (MIC of greater than 10 μg/mL)
Tebipenem MIC alone (T) (KP1180 Klebsiella pneumoniae SHV-OSBL(2b), TEM-OSBL(2b), CTX-M-15, DHA-1, IMP-26): Y (MIC of 1 μg/mL to 10 μg/mL)
Tebipenem MIC alone (T) (KP1181 Klebsiella pneumoniae SHV-OSBL(2b), CTX-M-15, IMP-26): Y (MIC of 1 μg/mL to 10 μg/mL)
